Test results as given in ChEMBL document CHEMBL4507263, “Data for DCP probe BAY-474” (2021).

Columns and labels:
[1] = target: Mitogen-activated protein kinase kinase kinase kinase 4 (Homo sapiens) (UniProt O95819); conditions: Compound concentration 1000.0 nM
[2] = target: Serine/threonine-protein kinase N1 (Homo sapiens) (UniProt Q16512); conditions: Compound concentration 1000.0 nM
[3] = system: Epidermal growth factor receptor (Homo sapiens), P00533 [UNDEFINED MUTATION]; conditions: Compound concentration 1000.0 nM
[4] = target: RAF proto-oncogene serine/threonine-protein kinase (Homo sapiens) (UniProt P04049); conditions: Compound concentration 1000.0 nM
[5] = target: Receptor tyrosine-protein kinase erbB-2 (Homo sapiens) (UniProt P04626); conditions: Compound concentration 1000.0 nM
[6] = target: Serine/threonine-protein kinase Chk1 (Homo sapiens) (UniProt O14757); conditions: Compound concentration 1000.0 nM
[7] = target: Serine/threonine-protein kinase Nek3 (Homo sapiens) (UniProt P51956); conditions: Compound concentration 1000.0 nM
[8] = system: Tyrosine-protein kinase ABL1 (Homo sapiens), P00519 [F317L]; conditions: Compound concentration 1000.0 nM
[9] = target: Serine/threonine-protein kinase PknB (Mycobacterium tuberculosis) (UniProt P9WI81); conditions: Compound concentration 1000.0 nM
[10] = target: cAMP-dependent protein kinase catalytic subunit PRKX (Homo sapiens) (UniProt P51817); conditions: Compound concentration 1000.0 nM
[11] = target: Cyclin-dependent kinase 4 (Homo sapiens) (UniProt P11802); conditions: Compound concentration 1000.0 nM
[12] = target: Dual specificity mitogen-activated protein kinase kinase 6 (Homo sapiens) (UniProt P52564); conditions: Compound concentration 1000.0 nM
[13] = target: Serine/threonine-protein kinase ULK3 (Homo sapiens) (UniProt Q6PHR2); conditions: Compound concentration 1000.0 nM
[14] = target: Cyclin-dependent kinase-like 5 (Homo sapiens) (UniProt O76039); conditions: Compound concentration 1000.0 nM
[15] = target: Calcium/calmodulin-dependent protein kinase type 1G (Homo sapiens) (UniProt Q96NX5); conditions: Compound concentration 1000.0 nM
[16] = target: Serine/threonine-protein kinase NLK (Homo sapiens) (UniProt Q9UBE8); conditions: Compound concentration 1000.0 nM
[17] = target: Serine/threonine-protein kinase STK11 (Homo sapiens) (UniProt Q15831); conditions: Compound concentration 1000.0 nM
[18] = target: GABA-A receptor; anion channel (Rattus norvegicus) (UniProt O09028+P15431+P18506+P18508+P19969+P20236+P23574+P23576+P28471+P28473+P30191+P62813+P63079+P63138+Q91ZM7+Q9ES14); conditions: Compound concentration 10.0 uM
[19] = target: Ephrin type-A receptor 5 (Homo sapiens) (UniProt P54756); conditions: Compound concentration 1000.0 nM
[20] = system: Receptor-type tyrosine-protein kinase FLT3 (Homo sapiens), P36888 [UNDEFINED MUTATION]; conditions: Compound concentration 1000.0 nM
[21] = target: Phosphatidylinositol 4,5-bisphosphate 3-kinase catalytic subunit delta isoform (Homo sapiens) (UniProt O00329); conditions: Compound concentration 1000.0 nM
[22] = target: Serine/threonine-protein kinase ICK (Homo sapiens) (UniProt Q9UPZ9); conditions: Compound concentration 1000.0 nM
[23] = target: Aurora kinase C (Homo sapiens) (UniProt Q9UQB9); conditions: Compound concentration 1000.0 nM
[24] = target: Microtubule-associated serine/threonine-protein kinase 1 (Homo sapiens) (UniProt Q9Y2H9); conditions: Compound concentration 1000.0 nM
[25] = target: Non-receptor tyrosine-protein kinase TYK2 (Homo sapiens) (UniProt P29597); conditions: Compound concentration 1000.0 nM
[26] = target: Macrophage colony-stimulating factor 1 receptor (Homo sapiens) (UniProt P07333); conditions: Compound concentration 1000.0 nM
[27] = target: Cyclin-dependent kinase 3 (Homo sapiens) (UniProt Q00526); conditions: Compound concentration 1000.0 nM
[28] = target: Mitogen-activated protein kinase kinase kinase 9 (Homo sapiens) (UniProt P80192); conditions: Compound concentration 1000.0 nM
[29] = target: Mitogen-activated protein kinase 10 (Homo sapiens) (UniProt P53779); conditions: Compound concentration 1000.0 nM
[30] = target: NUAK family SNF1-like kinase 1 (Homo sapiens) (UniProt O60285); experiment: ARK5 (h) Millipore kinase activity assay; conditions: Compound concentration 1.0 uM
[31] = target: Mitogen-activated protein kinase 9 (Homo sapiens) (UniProt P45984); experiment: JNK2alpha2 (h) Millipore kinase activity assay; conditions: Compound concentration 1.0 uM
[32] = target: Glucocorticoid receptor (Homo sapiens) (UniProt P04150); experiment: Glucocorticoid Eurofins-Panlabs radioligand binding assay; conditions: Compound concentration 10.0 uM
[33] = species: Rattus norvegicus; experiment: Testosterone Eurofins-Panlabs radioligand binding assay; design: ligand concentration 1.5 nM; conditions: Compound concentration 10.0 uM
[34] = target: Ephrin type-B receptor 4 (Homo sapiens) (UniProt P54760); experiment: EphB4 (h) Millipore kinase activity assay; conditions: Compound concentration 1.0 uM
[35] = target: Mitogen-activated protein kinase 1 (Homo sapiens) (UniProt P28482); experiment: MAPK1 (h) Millipore kinase activity assay; conditions: Compound concentration 1.0 uM
[36] = target: Serine/threonine-protein kinase Chk2 (Homo sapiens) (UniProt O96017); experiment: CHK2 (h) Millipore kinase activity assay; conditions: Compound concentration 1.0 uM
[37] = target: Casein kinase I isoform gamma-3 (Homo sapiens) (UniProt Q9Y6M4); experiment: CK1gamma3 (h) Millipore kinase activity assay; conditions: Compound concentration 1.0 uM
[38] = target: Mitogen-activated protein kinase 14 (Homo sapiens) (UniProt Q16539); experiment: SAPK2a (h) Millipore kinase activity assay; conditions: Compound concentration 1.0 uM
[39] = target: Serine/threonine-protein kinase Sgk1 (Homo sapiens) (UniProt O00141); experiment: SGK (h) Millipore kinase activity assay; conditions: Compound concentration 1.0 uM
[40] = target: Death-associated protein kinase 2 (Homo sapiens) (UniProt Q9UIK4); experiment: DAPK2 (h) Millipore kinase activity assay; conditions: Compound concentration 1.0 uM
[41] = target: RAC-gamma serine/threonine-protein kinase (Homo sapiens) (UniProt Q9Y243); experiment: PKBgamma (h) Millipore kinase activity assay; conditions: Compound concentration 1.0 uM
[42] = target: Tyrosine-protein kinase BTK (Homo sapiens) (UniProt Q06187); experiment: BTK (h) Millipore kinase activity assay; conditions: Compound concentration 1.0 uM
[43] = target: Adenosine receptor A3 (Homo sapiens) (UniProt P0DMS8); conditions: Compound concentration 10.0 uM
[44] = target: Aurora kinase A (Homo sapiens) (UniProt O14965); experiment: Aurora-A( h) Millipore kinase activity assay; conditions: Compound concentration 1.0 uM

RAF proto-oncogene serine/threonine-protein kinase (Homo sapiens), sequence (P04049 whole entry): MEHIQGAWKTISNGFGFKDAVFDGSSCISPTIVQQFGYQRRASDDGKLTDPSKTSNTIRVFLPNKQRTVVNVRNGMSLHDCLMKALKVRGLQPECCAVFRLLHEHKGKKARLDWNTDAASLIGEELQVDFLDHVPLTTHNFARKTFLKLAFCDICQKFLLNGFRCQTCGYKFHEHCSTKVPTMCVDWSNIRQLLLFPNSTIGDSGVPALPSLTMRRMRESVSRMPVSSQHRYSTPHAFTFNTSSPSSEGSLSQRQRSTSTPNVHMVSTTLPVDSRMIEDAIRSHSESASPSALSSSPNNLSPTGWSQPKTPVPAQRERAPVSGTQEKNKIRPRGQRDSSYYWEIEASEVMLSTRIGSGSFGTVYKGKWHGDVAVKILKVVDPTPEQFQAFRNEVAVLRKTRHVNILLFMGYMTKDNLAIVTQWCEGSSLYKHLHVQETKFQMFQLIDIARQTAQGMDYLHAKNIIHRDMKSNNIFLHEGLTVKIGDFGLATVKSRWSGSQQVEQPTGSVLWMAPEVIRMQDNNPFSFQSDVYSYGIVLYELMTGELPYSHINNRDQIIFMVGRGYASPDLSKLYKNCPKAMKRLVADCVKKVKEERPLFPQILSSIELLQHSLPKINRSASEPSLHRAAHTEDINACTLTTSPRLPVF
Serine/threonine-protein kinase NLK (Homo sapiens), sequence (Q9UBE8 whole entry): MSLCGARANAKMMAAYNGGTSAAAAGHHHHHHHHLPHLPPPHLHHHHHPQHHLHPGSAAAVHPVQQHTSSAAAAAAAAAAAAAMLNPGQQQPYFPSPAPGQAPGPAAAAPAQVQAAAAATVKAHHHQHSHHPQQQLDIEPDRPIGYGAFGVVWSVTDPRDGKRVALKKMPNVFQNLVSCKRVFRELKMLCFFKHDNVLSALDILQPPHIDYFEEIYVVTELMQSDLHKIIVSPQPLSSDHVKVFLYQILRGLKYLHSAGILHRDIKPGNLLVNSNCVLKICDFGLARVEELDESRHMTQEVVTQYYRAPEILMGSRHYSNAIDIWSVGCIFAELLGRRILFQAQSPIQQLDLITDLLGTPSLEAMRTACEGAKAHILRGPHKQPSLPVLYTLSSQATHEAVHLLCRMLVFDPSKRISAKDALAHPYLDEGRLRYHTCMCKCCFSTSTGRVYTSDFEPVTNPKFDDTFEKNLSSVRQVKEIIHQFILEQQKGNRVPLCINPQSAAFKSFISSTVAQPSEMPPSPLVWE
Casein kinase I isoform gamma-3 (Homo sapiens), sequence (Q9Y6M4 whole entry, looked up, canonical isoform): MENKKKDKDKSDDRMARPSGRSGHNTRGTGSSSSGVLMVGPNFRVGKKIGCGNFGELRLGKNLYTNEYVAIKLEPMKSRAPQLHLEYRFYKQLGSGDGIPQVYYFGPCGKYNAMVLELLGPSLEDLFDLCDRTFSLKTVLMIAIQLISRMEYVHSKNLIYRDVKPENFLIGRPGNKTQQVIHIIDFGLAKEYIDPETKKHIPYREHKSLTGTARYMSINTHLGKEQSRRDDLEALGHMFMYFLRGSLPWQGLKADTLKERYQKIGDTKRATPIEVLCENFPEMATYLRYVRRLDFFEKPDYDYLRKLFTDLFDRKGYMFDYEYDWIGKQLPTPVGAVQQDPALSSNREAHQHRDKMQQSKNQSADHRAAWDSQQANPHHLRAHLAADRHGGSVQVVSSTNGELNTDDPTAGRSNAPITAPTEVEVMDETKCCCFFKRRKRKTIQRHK
Glucocorticoid receptor (Homo sapiens), sequence (P04150 whole entry): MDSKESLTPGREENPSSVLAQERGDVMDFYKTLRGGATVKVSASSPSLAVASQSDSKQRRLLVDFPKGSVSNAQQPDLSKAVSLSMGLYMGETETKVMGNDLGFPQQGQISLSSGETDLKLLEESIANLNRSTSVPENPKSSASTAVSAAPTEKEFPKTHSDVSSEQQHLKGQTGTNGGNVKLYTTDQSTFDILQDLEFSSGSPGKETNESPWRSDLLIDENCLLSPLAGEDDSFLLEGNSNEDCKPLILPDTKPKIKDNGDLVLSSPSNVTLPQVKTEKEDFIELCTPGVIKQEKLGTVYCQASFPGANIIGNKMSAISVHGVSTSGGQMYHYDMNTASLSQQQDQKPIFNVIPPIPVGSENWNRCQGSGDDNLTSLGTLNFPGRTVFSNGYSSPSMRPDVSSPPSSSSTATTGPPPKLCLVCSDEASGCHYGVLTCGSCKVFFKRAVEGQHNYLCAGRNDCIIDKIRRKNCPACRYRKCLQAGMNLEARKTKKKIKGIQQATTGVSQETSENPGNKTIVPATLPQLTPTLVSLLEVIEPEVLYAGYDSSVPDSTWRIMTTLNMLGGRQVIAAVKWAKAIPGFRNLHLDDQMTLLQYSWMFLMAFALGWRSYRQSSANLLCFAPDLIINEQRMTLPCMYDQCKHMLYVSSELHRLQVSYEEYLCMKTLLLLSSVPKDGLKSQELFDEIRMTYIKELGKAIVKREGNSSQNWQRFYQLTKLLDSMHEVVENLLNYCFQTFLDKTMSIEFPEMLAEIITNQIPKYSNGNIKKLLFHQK
Cyclin-dependent kinase 3 (Homo sapiens), sequence (Q00526 whole entry, looked up): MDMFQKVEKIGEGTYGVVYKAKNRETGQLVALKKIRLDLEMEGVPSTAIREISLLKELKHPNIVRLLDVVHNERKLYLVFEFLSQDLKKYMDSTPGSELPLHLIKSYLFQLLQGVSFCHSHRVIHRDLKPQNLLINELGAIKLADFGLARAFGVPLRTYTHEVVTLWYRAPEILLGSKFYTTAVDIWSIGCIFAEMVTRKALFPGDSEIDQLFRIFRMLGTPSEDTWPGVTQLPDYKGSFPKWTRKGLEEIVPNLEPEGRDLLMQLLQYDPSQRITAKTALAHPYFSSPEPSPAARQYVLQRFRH
Mitogen-activated protein kinase kinase kinase 9 (Homo sapiens), sequence (P80192 whole entry, looked up): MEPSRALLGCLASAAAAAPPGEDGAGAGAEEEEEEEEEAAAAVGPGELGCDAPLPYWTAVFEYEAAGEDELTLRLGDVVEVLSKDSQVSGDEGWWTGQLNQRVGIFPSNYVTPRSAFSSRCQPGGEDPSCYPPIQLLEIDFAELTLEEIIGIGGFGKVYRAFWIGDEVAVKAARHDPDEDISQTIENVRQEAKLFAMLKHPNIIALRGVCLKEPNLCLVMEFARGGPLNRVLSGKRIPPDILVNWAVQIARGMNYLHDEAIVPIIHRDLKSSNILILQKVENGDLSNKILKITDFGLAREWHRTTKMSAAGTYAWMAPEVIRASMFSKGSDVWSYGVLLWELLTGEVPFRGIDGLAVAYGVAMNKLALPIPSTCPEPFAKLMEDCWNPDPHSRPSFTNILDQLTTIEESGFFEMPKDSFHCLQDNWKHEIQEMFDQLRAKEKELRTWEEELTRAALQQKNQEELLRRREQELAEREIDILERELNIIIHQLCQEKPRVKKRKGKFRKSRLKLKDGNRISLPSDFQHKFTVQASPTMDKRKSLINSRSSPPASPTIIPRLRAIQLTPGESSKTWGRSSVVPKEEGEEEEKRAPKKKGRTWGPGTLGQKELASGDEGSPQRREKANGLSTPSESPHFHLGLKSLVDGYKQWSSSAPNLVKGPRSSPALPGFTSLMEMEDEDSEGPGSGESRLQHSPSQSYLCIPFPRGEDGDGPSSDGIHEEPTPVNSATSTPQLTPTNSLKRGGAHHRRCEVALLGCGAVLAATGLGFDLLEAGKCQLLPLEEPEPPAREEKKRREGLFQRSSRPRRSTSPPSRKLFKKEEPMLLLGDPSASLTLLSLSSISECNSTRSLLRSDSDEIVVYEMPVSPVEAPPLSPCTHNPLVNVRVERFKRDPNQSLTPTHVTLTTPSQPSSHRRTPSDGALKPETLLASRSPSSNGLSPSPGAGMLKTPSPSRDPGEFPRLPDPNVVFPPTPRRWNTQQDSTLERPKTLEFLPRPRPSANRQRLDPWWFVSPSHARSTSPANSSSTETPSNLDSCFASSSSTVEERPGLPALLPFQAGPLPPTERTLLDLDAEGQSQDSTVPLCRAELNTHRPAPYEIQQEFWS
Serine/threonine-protein kinase Chk2 (Homo sapiens), sequence (O96017 whole entry, canonical isoform): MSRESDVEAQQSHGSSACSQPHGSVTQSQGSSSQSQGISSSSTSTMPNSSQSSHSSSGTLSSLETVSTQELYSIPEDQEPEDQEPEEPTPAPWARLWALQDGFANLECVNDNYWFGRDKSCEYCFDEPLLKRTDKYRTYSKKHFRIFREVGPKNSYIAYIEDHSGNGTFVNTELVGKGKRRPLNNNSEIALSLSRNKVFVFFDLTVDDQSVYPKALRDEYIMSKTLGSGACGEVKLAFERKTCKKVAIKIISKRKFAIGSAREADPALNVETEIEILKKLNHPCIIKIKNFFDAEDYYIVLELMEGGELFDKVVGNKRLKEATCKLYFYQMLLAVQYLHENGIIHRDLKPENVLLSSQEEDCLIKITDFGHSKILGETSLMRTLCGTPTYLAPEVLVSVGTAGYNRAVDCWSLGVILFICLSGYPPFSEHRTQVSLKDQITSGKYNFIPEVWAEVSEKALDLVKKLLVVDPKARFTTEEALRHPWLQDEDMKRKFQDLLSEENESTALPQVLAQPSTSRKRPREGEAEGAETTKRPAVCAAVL
Adenosine receptor A3 (Homo sapiens), sequence (P0DMS8 whole entry): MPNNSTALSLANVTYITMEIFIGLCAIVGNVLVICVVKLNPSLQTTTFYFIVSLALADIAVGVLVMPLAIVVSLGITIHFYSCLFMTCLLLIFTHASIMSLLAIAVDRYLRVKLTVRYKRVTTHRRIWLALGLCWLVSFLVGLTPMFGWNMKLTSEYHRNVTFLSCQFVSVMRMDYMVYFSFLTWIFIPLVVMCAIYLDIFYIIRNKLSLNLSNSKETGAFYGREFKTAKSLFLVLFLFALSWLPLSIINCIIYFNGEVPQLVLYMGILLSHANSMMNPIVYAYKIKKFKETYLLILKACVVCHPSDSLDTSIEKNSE
Aurora kinase C (Homo sapiens), sequence (Q9UQB9 whole entry): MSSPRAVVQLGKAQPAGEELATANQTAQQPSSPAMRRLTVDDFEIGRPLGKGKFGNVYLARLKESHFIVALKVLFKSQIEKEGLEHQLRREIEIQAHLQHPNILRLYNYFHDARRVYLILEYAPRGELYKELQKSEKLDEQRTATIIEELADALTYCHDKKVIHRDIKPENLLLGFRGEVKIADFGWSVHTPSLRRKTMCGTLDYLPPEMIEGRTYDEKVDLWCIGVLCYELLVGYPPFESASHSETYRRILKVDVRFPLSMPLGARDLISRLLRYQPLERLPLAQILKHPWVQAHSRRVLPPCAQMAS

CC1=C(C#N)[C@@H](c2ccc3[nH]nc(C)c3c2)C(C#N)=C(c2ccc(Cl)cc2)N1 [BAY-827]
inactive: residual activity [1] 100% | residual activity [2] 91.4% | residual activity [3] 100% | residual activity [4] 100% | residual activity [5] 100% | residual activity [6] 100% | residual activity [7] 100% | residual activity [8] 100% | residual activity [9] 100% | residual activity [10] 100% | residual activity [11] 100% | residual activity [12] 100% | residual activity [13] 88.3% | residual activity [14] 88.5% | residual activity [15] 100% | residual activity [16] 78.9% | residual activity [17] 100% | inhibition [18] -7.24% | residual activity [19] 100% | residual activity [20] 100% | residual activity [21] 100% | residual activity [22] 76.2% | residual activity [23] 100% | residual activity [24] 100% | residual activity [25] 73.1% | residual activity [26] 100% | residual activity [27] 100% | residual activity [28] 90.4% | residual activity [29] 68.8%

CC1=C(C#N)C(c2ccc3[nH]nc(C)c3c2)C(C#N)=C(C)N1 [BAY-474]
inactive: inhibition [30] 22% | inhibition [31] 17% | inhibition [32] 12% | inhibition [33] 12% | inhibition [34] -4% | inhibition [35] 4% | inhibition [36] 4% | inhibition [37] 21% | inhibition [38] 3% | inhibition [39] -2% | inhibition [40] -4% | inhibition [41] -4% | inhibition [42] -8% | inhibition [43] 13% | inhibition [44] 40%
